For data set [1], the system named is A431 cells (human epidermoid squamous carcinoma cell). The data set can be described thus: Anti-tumor experiment, improved MTT method, A431 cells, 72 h. It is filed as cell-based. Here is the method: The inventive compounds were formulated into 5 concentrations. […] The incubation was continued for another 6 h, and 100 μl SDS was added to end the reaction.
1. Cell Line: A431 Human Epidermoid Squamous Carcinoma Cell
(In general: Tetrazolium assays rely on reduction of a dye to a coloured formazan, in cell work by metabolically active cells.)

The test system of data set [2] is BT-474: Human Breast Cancer Cell. The data set can be described thus: Inhibition of cell proliferation, SRB method, BT-474 cells, 5 days. In kind it is cell-based. Particulars: 120 h, Logit method, read-out: BT474 IC50. Here is the method:
2. Cell Line: BT-474: Human Breast Cancer Cell The cells were incubated with compounds of various concentrations (10-0.001 μm individually) for 5 days. The inhibition of cell proliferation was tested according to the SRB method, and the inhibitory rate was figure out. According to the inhibitory rate, the IC50 was calculated by the Logit method. The anti-tumor activities in vitro were compared.
Background: The SRB assay estimates cell density from bound dye.

The target in a further data set is T1, Erb-B2 (Homo sapiens, UniProt P04626).
T1 construct: After treated with various compounds for 1.5 h, the cells were collected, cracked; endogenous in cells; host or cells: BT474 human breast cancer cells
T1 sequence (P04626 23-1255): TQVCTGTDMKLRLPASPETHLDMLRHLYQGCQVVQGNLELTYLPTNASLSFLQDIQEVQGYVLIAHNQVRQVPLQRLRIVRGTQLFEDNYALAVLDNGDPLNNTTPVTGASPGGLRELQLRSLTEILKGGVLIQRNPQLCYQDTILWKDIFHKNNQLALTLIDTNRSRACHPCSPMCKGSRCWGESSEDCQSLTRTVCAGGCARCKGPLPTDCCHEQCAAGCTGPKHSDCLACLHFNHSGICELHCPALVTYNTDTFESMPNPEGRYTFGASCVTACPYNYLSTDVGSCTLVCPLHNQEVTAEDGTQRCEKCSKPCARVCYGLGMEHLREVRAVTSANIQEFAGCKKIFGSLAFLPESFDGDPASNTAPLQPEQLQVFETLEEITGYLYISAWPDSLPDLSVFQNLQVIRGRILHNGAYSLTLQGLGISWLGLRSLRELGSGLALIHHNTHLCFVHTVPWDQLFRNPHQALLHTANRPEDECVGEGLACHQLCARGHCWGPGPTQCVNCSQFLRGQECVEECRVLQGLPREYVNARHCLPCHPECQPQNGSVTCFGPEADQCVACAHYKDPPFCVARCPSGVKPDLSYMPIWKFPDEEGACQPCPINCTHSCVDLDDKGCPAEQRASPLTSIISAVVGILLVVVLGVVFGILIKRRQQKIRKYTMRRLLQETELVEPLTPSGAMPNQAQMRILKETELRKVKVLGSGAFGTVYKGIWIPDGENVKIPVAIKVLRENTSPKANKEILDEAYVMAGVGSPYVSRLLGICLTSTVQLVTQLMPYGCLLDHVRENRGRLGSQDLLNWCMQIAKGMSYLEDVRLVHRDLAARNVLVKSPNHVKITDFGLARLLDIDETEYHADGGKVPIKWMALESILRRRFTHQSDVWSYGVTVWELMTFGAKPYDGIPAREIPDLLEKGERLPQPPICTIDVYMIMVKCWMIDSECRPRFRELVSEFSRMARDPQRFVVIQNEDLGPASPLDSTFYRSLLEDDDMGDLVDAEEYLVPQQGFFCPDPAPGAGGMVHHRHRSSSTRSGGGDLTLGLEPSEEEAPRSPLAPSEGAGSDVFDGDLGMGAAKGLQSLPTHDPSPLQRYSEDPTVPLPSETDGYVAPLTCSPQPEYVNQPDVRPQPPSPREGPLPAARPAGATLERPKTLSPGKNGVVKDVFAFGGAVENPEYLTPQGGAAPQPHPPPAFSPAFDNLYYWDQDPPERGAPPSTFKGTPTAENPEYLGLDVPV
The data set can be described thus: Inhibitory effect on the phosphorylation activity of Erb-B2 in BT474 cells (SDS-PAGE/blot, ECL). As to conditions: BT474 cells treated […]; FIG. 1; comparison with Iressa. It is filed as cell-based. As to the method:
The inhibitory effect of compound 8 and compound 14 on the phosphorylation activity of Erb-B2: The concentration of the human breast cancer cells BT474 were adjusted to a suitable concentration, and inoculated into a plate. After treated with various compounds for 1.5 h, the cells were collected, cracked and the protein was adjusted to the same quantity. Following the protein-denaturation, SDS-PAGE was conducted, and transferred to nitric acid cellulose film; Hybriding with the anti-phosphorylation antibody (mono-anti), anti-β-tublin antibody (mono-anti) and anti-mouse-IgG antibody (bi-anti) respectively; Assayed by the ECL kit and the X-ray plate was exposed. According to the size and the density of the corresponding protein band, the inhibitory effect on Erb-B2 kinases can be evaluated.

Data set [3] relates to human skin squamous cancer cell A431 grafted in a nude mouse. The data set can be described thus: Anti-tumor effect on human skin squamous cancer cell A431 grafted in a nude mouse. In kind it is in vivo. Here is the method:
A well-growth solid tumor of A431 was selected and incised into several pieces with the size of 2-3 mm; each was grafted into the right armpit of a mouse subcutaneously with a trocar respectively. 5 After 7days, the test compounds were administrated by gastric perfusion through the mouth for 13 days continuously. The long span (a) and the short span (b) of the tumor were measured with a vernier caliper every 4 days. According to the formula V=ab^2/2, the volume (mm^3) of the tumor could be calculated. The test animals were neck-off killed 23 days after the grafting. The test animals were anatomized to obtain the tumor. The tumors were weighed and the inhibitory rate was calculated.

The mark [4] stands for this setting: Homo sapiens, A-431, 72 h, A431 cells, 72 h, class symbols, read-out: IC50.
Setting [5] is: Homo sapiens, A-431, A431 cells, * = two results from two experiments, read-out: A431 IC50.
Setting [6] is: A431 cells, * = two results from two experiments, read-out: A431 IC50.

Where two headings read alike, the source gives them in different places.

As to `Fc1cccc(COc2ccc(Nc3ncnc4ccc(OCCCN5CCOCC5)cc34)cc2Cl)c1` [Example 20, 4-[3-chloro-4-(3-fluorobenzyloxy)-phenylamino]-6-[3-(4-morpholino)-propoxy]-quinazoline], the IC50 – broadly, the midpoint of a concentration-inhibition curve – is less than 1000 nM in data set [1] (setting [4]), 1690 nM in data set [1] (setting [5]) and 79 nM in data set [2].
For `COc1ccc(-c2ccc3ncnc(Nc4ccc(OCc5cccc(F)c5)c(Cl)c4)c3c2)cc1` [Example 23, 4-[3-chloro-4-(3-fluorobenzyloxy)-phenylamino]-6-(4-methoxy-phenyl)-quinazoline], in that order: 10000 to 50000 nM, 24000 nM and 170 nM.
Turning to `OCc1ccc(-c2ccc3ncnc(Nc4ccc(OCc5cccc(F)c5)c(Cl)c4)c3c2)o1` [Example 27, 4-[3-chloro-4-(3-fluorobenzyloxy)-phenylamino]-6-(5-hydroxymethyl-furan-2-yl)-quinazoline], the IC50 is 1030 nM in data set [1] (setting [6]), 1000 to 10000 nM in data set [1] (setting [4]), 1530 nM in data set [1] (setting [5]) and 23 nM in data set [2].
`COc1cc2ncnc(Nc3ccc(OCc4cccc(F)c4)c(Cl)c3)c2cc1OCCCN1CCOCC1` [Example 30, 4-[3-chloro-4-(3-fluorobenzyloxy)-phenylamino]-6-(3-(4-morpholino)propoxy)-7-methoxy-quinazoline]: the results for the IC50 in data set [1] (setting [4]), in data set [1] (setting [5]) and in data set [2] were 1000 to 10000 nM, 9260 nM and 240 nM, respectively.
In the case of `Cc1ccc(S(=O)(=O)Nc2ccc3ncnc(Nc4ccc(OCc5cccc(F)c5)c(Cl)c4)c3c2)cc1` [Example 9, N-{4-[-3-chloro-4-(3-fluorobenzyloxy)-phenylamino]-quinazolin-6-yl}-p-methylbenzenesulfonamide], the results for the IC50 in data set [1] (setting [4]), in data set [1] (setting [5]) and in data set [2] were 1000 to 10000 nM, 1220 nM and 280 nM, respectively.
For `CS(=O)(=O)OCc1ccc(-c2ccc3ncnc(Nc4ccc(OCc5cccc(F)c5)c(Cl)c4)c3c2)o1` [Example 28, 4-[3-chloro-4-(3-fluorobenzyloxy)-phenylamino]-6-(5-methanesulfonyloxymethylene-furan-2-yl)-quinazoline], in that order: 1000 to 10000 nM, 2030 nM and 49 nM.
`Oc1ccc2ncnc(Nc3ccc(OCc4cccc(F)c4)c(Cl)c3)c2c1` [Example 18, 4-[3-chloro-4-(3-fluorobenzyloxy)-phenylamino]-6-hydroxy-quinazoline]: the IC50 in data set [1] (setting [4]) lay within 10000 to 50000 nM.
Take `CC(=O)OCc1cccc(-c2ccc3ncnc(Nc4ccc(OCc5cccc(F)c5)c(Cl)c4)c3c2)c1` [Example 25, 4-[3-chloro-4-(3-fluorobenzyloxy)-phenylamino]-6-(3-acetoxymethyl-phenyl)-quinazoline]: the IC50 in data set [1] (setting [4]) was less than 1000 nM; in data set [2], 62 nM.
As to `OCc1cccc(-c2ccc3ncnc(Nc4ccc(OCc5cccc(F)c5)c(Cl)c4)c3c2)c1` [Example 24, 4-[3-chloro-4-(3-fluorobenzyloxy)-phenylamino]-6-(3-hydroxymethyl-phenyl)-quinazoline], the IC50 is 1000 to 10000 nM in data set [1] (setting [4]), 3870 nM in data set [1] (setting [5]) and 86 nM in data set [2].
With `COCCOc1ccc2ncnc(Nc3ccc(OCc4cccc(F)c4)c(Cl)c3)c2c1` [Example 19], the IC50 in data set [1] (setting [6]) is 1700 nM; in data set [1] (setting [4]) it was 1000 to 10000 nM; in data set [1] (setting [5]), 3290 nM; in data set [2] it was 88 nM.
Consider `COc1cc2ncnc(Nc3ccc(OCc4cccc(F)c4)c(Cl)c3)c2cc1OC` [Example 21, 4-[3-chloro-4-(3-fluorobenzyloxy)-phenylamino]-6,7-dimethoxy-quinazoline], for which the IC50 in data set [1] (setting [4]) is 1000 to 10000 nM; in data set [1] (setting [5]), 2210 nM; in data set [2], 190 nM.
For the compound `CN(C)C/C=C/C(=O)Nc1ccc2ncnc(Nc3ccc(OCc4cccc(F)c4)c(Cl)c3)c2c1` [Example 10, N-{4-[3-chloro-4-(3-fluorobenzyloxy)-phenylamino]-quinazolin-6-yl}-E,4-(dimethylamino)-but-2-enamide], in data set [1] (setting [4]), the IC50 fell in the range of 10000 to 50000 nM.
Turning to `C=CC(=O)Nc1cc2c(Nc3ccc(OCc4cccc(F)c4)c(Cl)c3)ncnc2cc1OC` [Example 14], the IC50 in data set [1] (setting [4]) is 1000 to 10000 nM; in data set [1] (setting [5]), 1720 nM; in data set [2] it was 6.9 nM. In addition, on Erb-B2, the “inhibitory activity on phosphorylation of Erb-B2 compared with Iressa” value was “more superior inhibitory activity”.
As for `C=CC(=O)Nc1ccc2ncnc(Nc3ccc(OCc4cccc(F)c4)c(Cl)c3)c2c1` [Example 8, N-{4-[3-chloro-4-(3-fluorobenzyloxy)-phenylamino]-quinazolin6-yl}-acrylamide], the IC50 in data set [1] (setting [6]) is 110 nM; in data set [1] (setting [4]), less than 1000 nM; in data set [1] (setting [5]) it was 180 nM; in data set [2], 1 nM. The “inhibitory activity on phosphorylation of Erb-B2 compared with Iressa” value against Erb-B2 was “more superior inhibitory activity”. For the same compound, the inhibition % in data set [3] (25 mg/kg ig × 13, by tumor weight) is 29.99%; in data set [3] (50 mg/kg ig × 13, by tumor weight), 38.67%; in data set [3] (100 mg/kg ig × 13, by tumor weight), 43.63%. Also, the “Weight of the tumor (g) x ± SD” value is on record as 0.79 ± 0.20 g in data set [3] (25 mg/kg ig × 13, day 23 after grafting); 0.69 ± 0.17 g in data set [3] (50 mg/kg ig × 13, day 23 after grafting); 0.64 ± 0.23 g in data set [3] (100 mg/kg ig × 13, day 23 after grafting). Also, the “Weight of the test animals (g) (tumor-off)” value in data set [3] (25 mg/kg ig × 13, nude mouse A431 graft) worked out at 21.58 ± 2.18 g; in data set [3] (50 mg/kg ig × 13, nude mouse A431 graft), 22.87 ± 3.96 g; in data set [3] (100 mg/kg ig × 13, nude mouse A431 graft), 22.13 ± 1.83 g.
On to `COCCOCc1cccc(-c2ccc3ncnc(Nc4ccc(OCc5cccc(F)c5)c(Cl)c4)c3c2)c1` [Example 26, 4-[3-chloro-4-(3-fluorobenzyloxy)-phenylamino]-6-[3-(methoxyethoxymethylene)-phenyl]-quinazoline], for which the IC50 in data set [1] (setting [4]) is 1000 to 10000 nM; in data set [1] (setting [5]) it was 4040 nM; in data set [2], 6630 nM.
For `CC(=O)Oc1ccc2ncnc(Nc3ccc(OCc4cccc(F)c4)c(Cl)c3)c2c1` [Example 17, O-{4-[-3-chloro-4-(3-fluorobenzyloxy)-phenylamino]-quinazolin-6-yl}-acetate], the IC50 in data set [1] (setting [4]) was less than 1000 nM; in data set [1] (setting [5]), 3480 nM; in data set [2], 43 nM.
For `Fc1cccc(COc2ccc(Nc3ncnc4ccc(Br)cc34)cc2Cl)c1` [Example 22, 4-[3-chloro-4-(3-fluorobenzyloxy)-phenylamino]-6-bromo-quinazoline], the IC50 in data set [1] (setting [4]) fell in the range of 10000 to 50000 nM.
Same read-out and setting: with `CN(C)C/C=C/C(=O)Nc1cc2c(Nc3ccc(OCc4cccc(F)c4)c(Cl)c3)ncnc2cc1OCC(F)(F)F` [Example 12] the figure was less than 1000 nM; with `CN(C)C/C=C/C(=O)Nc1cc2c(Nc3ccc(OCc4cccc(F)c4)c(Cl)c3)ncnc2cc1Cl` [Example 15, N-{4-[3-chloro-4-(3-fluorobenzyloxy)-phenylamino]-7-chloro-quinazolin-6-yl}-E,4-(dimethylamino)-but-2-enamide], 1000 to 10000 nM.
As to `C=CC(=O)Nc1cc2c(Nc3ccc(OCc4cccc(F)c4)c(Cl)c3)ncnc2cc1Cl` [Example 16, N-{4-[3-chloro-4-(3-fluorobenzyloxy)-phenylamino]-7-chloro-quinazolin-6-yl}-acrylamide], the IC50 in data set [1] (setting [4]) was 1000 to 10000 nM.
In the case of `COc1cc2ncnc(Nc3ccc(OCc4cccc(F)c4)c(Cl)c3)c2cc1NC(=O)/C=C/CN(C)C` [Example 13, N-{4-[3-chloro-4-(3-fluorobenzyloxy)-phenylamino]-7-methoxy-quinazolin-6-}-E-4-(dimethylamino)-but-2-enamide], the IC50 in data set [1] (setting [4]) lay in the range of 1000 to 10000 nM.
On the same count and under the same terms, the result for `CN(C)Cc1ccc(-c2ccc3ncnc(Nc4ccc(OCc5cccc(F)c5)c(Cl)c4)c3c2)o1` [Example 29, 4-[3-chloro-4-(3-flurobenzyloxy)-phenylamino]-6-(5-dimethylaminomethyl-furan-2-yl)-quinazoline] reads 1000 to 10000 nM.

Source of the values: patent publication US8309563B2, “Quinazoline derivatives useful as anti-tumor medicament” (Shanghai Allist Pharmaceuticals, Inc., priority 2006, dated 2012).
